From paper PMC8343220, “The selectivity of α‐adrenoceptor agonists for the human α1A, α1B, and α1D‐adrenoceptors” (Pharmacology Research & Perspectives, 2021)
Read-outs that look alike come from different tables or passages of the source.

Columns and labels:
human α1A‐adrenoceptor [1] = target: T1, human α1A‐adrenoceptor (Homo sapiens, UniProt P35348); assay: ERK1/2‐phosphorylation (Surefire Alphascreen), CHO‐α1A cells; type: cell-based
T1 construct: expressed in transfected cells; host or cells: CHO-K1
T1 sequence (P35348 1-466): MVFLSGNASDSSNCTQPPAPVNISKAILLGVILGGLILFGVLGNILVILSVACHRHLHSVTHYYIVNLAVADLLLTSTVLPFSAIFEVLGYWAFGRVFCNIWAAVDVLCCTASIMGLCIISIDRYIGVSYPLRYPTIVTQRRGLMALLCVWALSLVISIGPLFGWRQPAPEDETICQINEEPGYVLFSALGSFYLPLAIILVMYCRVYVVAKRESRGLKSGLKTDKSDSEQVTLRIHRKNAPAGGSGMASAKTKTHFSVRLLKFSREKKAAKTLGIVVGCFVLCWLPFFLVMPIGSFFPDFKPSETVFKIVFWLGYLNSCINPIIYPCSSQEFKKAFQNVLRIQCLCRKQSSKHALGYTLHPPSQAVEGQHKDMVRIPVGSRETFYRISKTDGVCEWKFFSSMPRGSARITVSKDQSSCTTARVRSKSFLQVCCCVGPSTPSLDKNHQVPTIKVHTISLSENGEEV

human α1A‐adrenoceptor [2] = target: T1, human α1A‐adrenoceptor; assay: ^3H‐prazosin whole‐cell radioligand binding, CHO‐α1A cells
[3] = target: T2, human α1D‐adrenoceptor (full length) (Homo sapiens, UniProt P25100); assay: ^3H‐prazosin whole‐cell radioligand binding, CHO‐α1D cells
T2 construct: human α1D‐adrenoceptor (full length) were used; expressed in transfected cells; host or cells: CHO-K1
T2 sequence (P25100 1-572): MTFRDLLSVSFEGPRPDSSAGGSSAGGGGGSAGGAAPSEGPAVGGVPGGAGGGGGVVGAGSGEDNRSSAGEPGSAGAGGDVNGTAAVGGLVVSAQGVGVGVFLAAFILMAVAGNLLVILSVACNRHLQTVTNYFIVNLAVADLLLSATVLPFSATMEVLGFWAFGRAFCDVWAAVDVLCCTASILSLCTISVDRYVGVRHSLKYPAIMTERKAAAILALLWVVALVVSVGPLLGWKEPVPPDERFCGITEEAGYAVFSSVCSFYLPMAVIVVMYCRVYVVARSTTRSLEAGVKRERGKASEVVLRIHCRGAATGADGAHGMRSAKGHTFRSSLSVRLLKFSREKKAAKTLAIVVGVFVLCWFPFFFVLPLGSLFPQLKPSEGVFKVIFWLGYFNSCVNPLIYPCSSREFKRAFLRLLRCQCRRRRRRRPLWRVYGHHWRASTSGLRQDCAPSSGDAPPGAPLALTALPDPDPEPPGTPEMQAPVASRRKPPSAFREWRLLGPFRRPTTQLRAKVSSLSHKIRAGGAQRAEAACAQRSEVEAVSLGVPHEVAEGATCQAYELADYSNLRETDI

human α1B‐adrenoceptor [4] = target: T3, human α1B‐adrenoceptor (Homo sapiens, UniProt P35368); assay: Intracellular free calcium mobilization, CHO‐α1B cells; type: cell-based; conditions: CHO‐α1B cells; for Intracellular calcium release % Ionomycin at 100 µM: response at 100 µM ligand (no EC50 given), % of ionomycin response
T3 construct: expressed in transfected cells; host or cells: CHO-K1
T3 sequence (P35368 1-520): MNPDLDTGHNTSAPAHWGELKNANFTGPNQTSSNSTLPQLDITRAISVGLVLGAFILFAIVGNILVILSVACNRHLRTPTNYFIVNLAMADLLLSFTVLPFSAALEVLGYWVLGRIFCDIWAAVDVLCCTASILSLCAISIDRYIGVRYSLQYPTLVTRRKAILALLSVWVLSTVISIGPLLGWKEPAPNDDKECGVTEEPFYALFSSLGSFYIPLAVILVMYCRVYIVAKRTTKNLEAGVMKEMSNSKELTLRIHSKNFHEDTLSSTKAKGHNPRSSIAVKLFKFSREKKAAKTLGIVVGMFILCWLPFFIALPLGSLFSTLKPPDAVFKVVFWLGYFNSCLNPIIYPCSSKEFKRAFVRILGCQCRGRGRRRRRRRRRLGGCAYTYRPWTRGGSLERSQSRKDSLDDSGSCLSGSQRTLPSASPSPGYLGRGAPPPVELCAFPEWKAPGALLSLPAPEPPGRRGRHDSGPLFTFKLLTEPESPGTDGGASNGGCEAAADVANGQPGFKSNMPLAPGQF

[5] = tested on: parental CHO cell line without any transfected receptors; assay: ERK1/2‐phosphorylation, parent CHO cells without transfected receptors; type: cell-based, Chinese hamster
human α1B‐adrenoceptor [6] = target: T3, human α1B‐adrenoceptor; assay: ERK1/2‐phosphorylation (Surefire Alphascreen), CHO‐α1B cells; type: cell-based; conditions: for ERK1/2‐phosphorylation % PDBu: maximal response as % PDBu response, for bi‐phasic responses the initial stimulatory part
[7] = target: T2, human α1D‐adrenoceptor (full length); assay: ERK1/2‐phosphorylation (Surefire Alphascreen), CHO‐α1D cells; type: cell-based; conditions: for ERK1/2‐phosphorylation % PDBu: maximal response as % of PDBu
human α1A‐adrenoceptor [8] = target: T1, human α1A‐adrenoceptor; assay: Intracellular free calcium mobilization, CHO‐α1A cells; type: cell-based
[9] = target: T2, human α1D‐adrenoceptor (full length); assay: Intracellular free calcium mobilization, CHO‐α1D cells; type: cell-based; conditions: for Intracellular calcium release % ionomycin: maximal response as % of 10 µM ionomycin
human α1B‐adrenoceptor [10] = target: T3, human α1B‐adrenoceptor; assay: ^3H‐prazosin whole‐cell radioligand binding, CHO‐α1B cells; conditions: CHO‐α1B cells; for Log KD, ^3H‐prazosin binding: whole‐cell binding (from Table 1), given as log KD (negative numbers); for Log KD α1B, ^3H‐prazosin whole cell binding: given as log KD (negative), mean ± SEM
[11] = tested on: parental CHO cell line without any transfected receptors; assay: Forskolin‐stimulated cAMP accumulation, parent CHO cells without transfected receptors; type: cell-based, Chinese hamster
human α1A‐adrenoceptor [12] = target: T1, human α1A‐adrenoceptor; assay: ^3H‐cAMP accumulation, CHO‐α1A cells; type: cell-based; conditions: CHO‐α1A cells; % of 10 µM forskolin response
[13] = CHO‐α1D cells, log values given negative

SMILES: C=CCN1CCc2nc(N)sc2CC1 [BHT920]
- ERK1/2‐phosphorylation % PDBu (human α1A‐adrenoceptor [1]): 61.4 ± 5.5%
- ERK1/2‐phosphorylation Log EC50 (human α1A‐adrenoceptor [1]): −5.14 ± 0.05
- Affinity selectivity ratio α1A vs α1B (human α1A‐adrenoceptor [2]): 9.3 fold
- Affinity selectivity ratio α1A vs α1D (human α1A‐adrenoceptor [2]): 1.6 fold
- Log KD α1A, ^3H‐prazosin whole cell binding (human α1A‐adrenoceptor [2]): −4.70 ± 0.04
- Affinity selectivity ratio α1B vs α1D [3]: 5.8 fold
- 3H‐prazosin binding Log KD ([3]; CHO‐α1D cells, whole‐cell binding (from Table 1), log values given negative): −4.49
- Log KD α1D, ^3H‐prazosin whole cell binding ([3]; CHO‐α1D cells, given as log KD (negative), mean ± SEM, 'early plateau' = specific binding not fully inhibited): −4.49 ± 0.07
- Intracellular calcium release % Ionomycin at 100 µM (human α1B‐adrenoceptor [4]): 16.3 ± 4.5%
- ERK1/2-phosphorylation % PDBu at 100μM ([5]; CHO cells without transfected receptors, response at 100μM only, EC50 not obtainable, % of PDBu (10μM)): 3.8 ± 1.8%
- ERK1/2‐phosphorylation Log EC50 (human α1B‐adrenoceptor [6]): −5.31 ± 0.04
- ERK1/2‐phosphorylation % PDBu (human α1B‐adrenoceptor [6]; CHO‐α1B cells): 12.2 ± 3.6%
- ERK1/2‐phosphorylation Log EC50 [7]: No response
- ERK1/2‐phosphorylation % PDBu ([7]; CHO‐α1D cells): No response
- Intracellular calcium release % ionomycin (human α1A‐adrenoceptor [8]): 39.7 ± 3.3%
- Intracellular calcium release Log EC50 (human α1A‐adrenoceptor [8]): −5.68 ± 0.09
- Log efficacy ratio KD /EC50 (human α1A‐adrenoceptor [8]): 0.98
- Intracellular calcium release Log EC50 [9, 13]: No response
- Intracellular calcium release % ionomycin ([9]; CHO‐α1D cells): No response
- Log KD, ^3H‐prazosin binding (human α1B‐adrenoceptor [10]): −3.73
- Log KD α1B, ^3H‐prazosin whole cell binding (human α1B‐adrenoceptor [10]): −3.73 ± 0.04

SMILES: COc1ccc(CC(C)NCC(O)c2ccc(O)c(NC=O)c2)cc1 (stereo not drawn) [Formoterol]
- cAMP accumulation (in presence of forskolin) Log EC50 [11]: No response
- Kd ([3]; 3H‐prazosin binding Log KD): 7.08 µM
- Kd ([3]; Log KD α1D, ^3H‐prazosin whole cell binding): 7.08 µM
- Intracellular calcium release Log EC50 [9]: No response

SMILES: CC(C)NCC(O)c1ccc(O)c(O)c1 (stereo not drawn) [Isoprenaline]
- cAMP accumulation (in presence of forskolin) Log EC50 ([11]; CHO cells without transfected receptors, in presence of forskolin): No response
- Intracellular calcium release % ionomycin (human α1B‐adrenoceptor [4]; maximal response as % of 10 µM ionomycin response): 53.9 ± 3.3%
- Emax at 100 µM ([5]; Cricetulus griseus, CHO, read-out: ERK1/2-phosphorylation % PDBu at 100μM): 5.1 ± 4.6%
- ERK1/2‐phosphorylation % PDBu (human α1B‐adrenoceptor [6]; CHO‐α1B cells): 77.8 ± 8.5%
- ERK1/2‐phosphorylation % PDBu ([7]; CHO‐α1D cells): 8.5 ± 1.7%
- Intracellular calcium release % Ionomycin at 100 µM ([9]; CHO‐α1D cells, response at 100 µM ligand (no EC50 given)): 3.6 ± 1.2%
- cAMP accumulation % forskolin (human α1A‐adrenoceptor [12]): 16.2 ± 3.0%

SMILES: COc1ccc(OC)c(C(O)CNC(=O)CN)c1 (stereo not drawn) [Midodrine]
- ERK1/2‐phosphorylation % PDBu at 100 µM (human α1A‐adrenoceptor [1]; CHO‐α1A cells, response at 100 μM ligand, no EC50 obtained): 87.7 ± 11.0%
- 3H‐prazosin binding log IC50 (bound, printed in Log KD column) ([3]; CHO‐α1D cells, whole‐cell binding, given as IC50 > log value): IC50 > −3
- IC50 ([3]; CHO‐α1D cells, printed as IC50> log value): > 1000 µM
- Intracellular calcium release % Ionomycin at 100 µM (human α1B‐adrenoceptor [4]): 16.9 ± 2.0%
- ERK1/2-phosphorylation % PDBu ([5]; CHO cells without transfected receptors, maximal response as % of PDBu (10μM) response, mean ± s.e.m.): No response
- ERK1/2-phosphorylation Log EC50 ([5]; CHO cells without transfected receptors, mean ± s.e.m.): No response
- ERK1/2‐phosphorylation % PDBu at 100 µM (human α1B‐adrenoceptor [6]; CHO‐α1B cells, response at 100 µM ligand (no EC50 given)): 20.4 ± 8.0%
- ERK1/2‐phosphorylation Log EC50 [7, 13]: No response
- ERK1/2‐phosphorylation % PDBu ([7]; CHO‐α1D cells): No response
- Intracellular calcium release Log EC50 [9, 13]: No response
- Intracellular calcium release % ionomycin ([9]; CHO‐α1D cells): No response
- Log KD, ^3H‐prazosin binding (human α1B‐adrenoceptor [10]): No binding
- Log KD α1B, ^3H‐prazosin whole cell binding (human α1B‐adrenoceptor [10]): No binding
